Results reported in ChEMBL document CHEMBL5727118, “Benzoic acid derivatives of bile acid as FXR/TGR5 agonists and methods of use thereof” (2019).

Target: T1, Bile acid receptor (Homo sapiens, UniProt Q96RI1)
T1 sequence (Q96RI1 whole entry): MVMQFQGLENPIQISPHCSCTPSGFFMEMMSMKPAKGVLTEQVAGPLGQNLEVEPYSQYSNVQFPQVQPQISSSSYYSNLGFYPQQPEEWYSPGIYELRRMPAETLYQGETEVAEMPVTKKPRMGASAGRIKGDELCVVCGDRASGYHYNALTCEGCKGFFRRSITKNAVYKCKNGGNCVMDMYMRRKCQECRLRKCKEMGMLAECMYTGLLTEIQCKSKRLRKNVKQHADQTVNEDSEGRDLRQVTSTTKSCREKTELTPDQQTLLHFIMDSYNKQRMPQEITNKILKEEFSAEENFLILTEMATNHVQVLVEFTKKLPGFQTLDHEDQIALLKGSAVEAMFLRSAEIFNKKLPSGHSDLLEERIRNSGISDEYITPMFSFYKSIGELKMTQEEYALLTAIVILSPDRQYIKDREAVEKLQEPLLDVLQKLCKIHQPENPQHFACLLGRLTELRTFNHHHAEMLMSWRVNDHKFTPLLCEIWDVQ
Test: FXR Reporter Assay kit purchased from Indigo Bioscience (Catalogue number: IB00601) to determine the potency and efficacy of compound developed by Enanta that can induce FXR activation. The principle application of this reporter assay system is to quantify functional activity of human FXR. The assay utilizes non-human mammalian cells, CHO (Chinese hamster ovary) cells engineered to express human NR1H4 protein (referred to as FXR). Reporter cells also incorporate the cDNA encoding beetle luciferase which catalyzes the substrates and yields photon emission. Luminescence intensity of the reaction is quantified using a plate-reading luminometer, Envision. Reporter Cells include the luciferase reporter gene functionally linked to an FXR responsive promoter. Thus, quantifying changes in luciferase expression in the treated reporter cells provides a sensitive surrogate measure of the changes in FXR activity. […] The assay is according to the manufacturer's instructions. In brief, the assay was performed in white, 96 well plates using final volume of 100 ul containing cells with different doses of compounds. Retrieve Reporter Cells from −80° C. storage. Perform a rapid thaw of the frozen cells by transferring a 10 ml volume of 37° C. cell recovery medium into the tube of frozen cells. Recap the tube of Reporter Cells and immediately place it in a 37° C. water bath for 5-10 minutes. […]
Format: cell-based

CC[C@H]1[C@@H](O)[C@@H]2[C@H](CC[C@]3(C)[C@@H]([C@H](C)C/C=C/c4ccc(F)cc4C(=O)O)CC[C@@H]23)[C@@]2(C)CC[C@@H](O)C[C@@H]12
EC50: < 100 nM
